Source: patent US6689938B2, “Method for treatment of insulin resistance in obesity and diabetes” (Oklajoma Medical Research Foundation, priority 2000, dated 2004)

What was measured:
Format in all cases: in vivo, mouse
[1] = tested on: POMC mutants and wildtype mice; assay: Insulin tolerance test after MSH or ACTH treatment; settings: for glucoregulatory response / ability of POMC null mice: peripheral administration to POMC null mice
Experimental: In this experiment, illustrated in FIG. 9, glucose was measured in 4-6 month old female mice, wildtypes and POMC mutants, 5 mice per group. Mice were fasted for 5 hours. Each genotype (wildtype +/+and mutant −/−) received either: (1) 0.1 mL saline i.p.; (2) 0.1 mL saline containing 1 μg α-MSH i.p.; or (3) 0.1 mL saline containing 1 μg ACTH s.c.
One hour later, human insulin (0.5 mIU/g body weight) was injected intraperitoneally in all mice, and glucose was measured at the indicated intervals in blood collected from a tail nick.

[2] = tested on: POMC null mutants and wildtype littermates; assay: Corticosterone supplementation in drinking water, blood glucose levels; settings: 25 μg per mL in drinking water for 3½ months, starting at 3 months of age; POMC null mutants and wildtype females
Experimental: (§1) In the experiment illustrated in FIG. 7, POMC null mutants and wildtype littermate females, 5 per group, received drinking water containing corticosterone (25 μg per mL) or nothing in addition for 3½ months, starting at 3 months of age. Blood glucose levels were determined before and after corticosterone supplementation.

[3] = tested on: POMC null mutants and wildtype mice; assay: Insulin tolerance test after corticosterone supplementation
Experimental: In this experiment, illustrated in FIG. 6, food was taken away in the morning from 5 month old females, 5 per group. 6 hrs later, the mice were injected with insulin (Human insulin, 1 Unit/kg, i.p.). Blood was collected at times indicated and glucose measured using a Glucometer.
as §1

Row | Compound | blood glucose levels in insulin tolerance test, treated POMC mutants versus wildtype littermates ([1]; 1 μg α-MSH i.p. one hour before human insulin 0.5 mIU/g i.p., 4-6 month old females fasted 5 hours) | insulin resistance in the POMC null mouse ([1]; administration to the POMC null mouse) | glucoregulatory response / ability of POMC null mice [1] | glucoregulatory response / ability of POMC null mice ([1]; listed as melanocortin stimulating hormone (MSH)) | induction of diabetes (blood glucose levels before and after supplementation) [2] | counterregulatory response in insulin tolerance test ([3]; POMC mutants versus wildtype mice) | blood glucose levels in insulin tolerance test ([3]; both wildtypes and mutants, versus untreated group)
1 | Ac-Ser-Tyr-Ser-Met-Glu-His-Phe-Arg-Trp-Gly-Lys-Pro-Val-NH2 [α-MSH] | not significantly different | induces insulin-resistance | restored the glucoregulatory ability | nearly normalizes the glucoregulatory response |  |  | 
2 | C[C@]12C[C@H](O)[C@H]3[C@@H](CCC4=CC(=O)CC[C@@]43C)[C@@H]1CC[C@@H]2C(=O)CO [corticosterone] |  |  |  |  | does not induce diabetes | lag behind the wildtype mice in their counterregulatory response in the same manner as without corticosterone supplementation | do not fall to as low a level as in the untreated group
